# Measurements: ChEMBL document CHEMBL1201862, “PubChem BioAssay data set” (2004)
# Active and inactive are the calls of the source.
# What was measured:
# Cytochrome P450 2D6 = Cytochrome P450 2D6 (Homo sapiens, UniProt P10635);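 further: CYP2D6 member of a cytochrome P450 panel assay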
# Cytochrome P450 3A4 = Cytochrome P450 3A4 (Homo sapiens, UniProt P08684);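 further: CYP3A4 tested as one member of a cytochrome P450 panel screen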
# [1] = biological target: T1, Heat shock factor protein 1 (Mus musculus, UniProt P38532); test: HSF1 potentiators in luciferase reporter cells, confirmation, cell-based, NIH3T3, luminescence, dose retest (AID 435004); format: functional;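 further: stress induced by proteasome inhibitor MG132 added 30 min after compound; luciferase reporter driven by HSF1 response element in NIH3T3 cells; actives raise luminescence as potentiators of the MG132 stress response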
# T1 sequence (P38532 whole entry): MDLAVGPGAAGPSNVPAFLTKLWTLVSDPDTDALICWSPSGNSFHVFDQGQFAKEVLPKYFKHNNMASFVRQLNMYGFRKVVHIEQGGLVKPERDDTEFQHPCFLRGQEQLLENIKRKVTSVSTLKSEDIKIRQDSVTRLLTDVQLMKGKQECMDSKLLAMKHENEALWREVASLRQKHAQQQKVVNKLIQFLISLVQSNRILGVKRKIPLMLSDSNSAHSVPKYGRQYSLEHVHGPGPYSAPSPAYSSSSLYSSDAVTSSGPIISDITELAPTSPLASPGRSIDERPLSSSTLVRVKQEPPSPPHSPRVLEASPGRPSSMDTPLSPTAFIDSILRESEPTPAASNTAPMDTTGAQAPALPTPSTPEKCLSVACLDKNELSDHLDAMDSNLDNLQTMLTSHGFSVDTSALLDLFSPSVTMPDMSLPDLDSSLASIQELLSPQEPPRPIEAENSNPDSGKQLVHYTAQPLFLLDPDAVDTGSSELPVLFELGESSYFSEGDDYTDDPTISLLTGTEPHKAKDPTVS
# [2] = Luminescence Cell-Based Dose Retest to Confirm Inhibitors of Cancer Stem Cells. [Related pubchem assays (depositor defined):AID2717, AID2721]; format: functional; settings: Homo sapiens
# Cytochrome P450 2C19 = Cytochrome P450 2C19 (Homo sapiens, UniProt P33261); test: Cytochrome panel assay with activity outcomes. Panel member name: p450-cyp2c19 Compounds with AC50 equal or less than 10 uM are considered active; format: functional
# Cytochrome P450 2C9 = Cytochrome P450 2C9 (Homo sapiens, UniProt P11712)
# INS1 = test: beta cell apoptosis inhibitors, cytokine rescue, dose response, luminescence, retest (AID 449756); format: functional, cell-based; settings: Rattus norvegicus;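 further: cell death triggered by IL-1 beta plus TNF-alpha plus IFN-gamma mixture; protective hits raise ATP signal compared with cytokine alone wells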
# Sequence of Cytochrome P450 3A4 (P08684 whole entry): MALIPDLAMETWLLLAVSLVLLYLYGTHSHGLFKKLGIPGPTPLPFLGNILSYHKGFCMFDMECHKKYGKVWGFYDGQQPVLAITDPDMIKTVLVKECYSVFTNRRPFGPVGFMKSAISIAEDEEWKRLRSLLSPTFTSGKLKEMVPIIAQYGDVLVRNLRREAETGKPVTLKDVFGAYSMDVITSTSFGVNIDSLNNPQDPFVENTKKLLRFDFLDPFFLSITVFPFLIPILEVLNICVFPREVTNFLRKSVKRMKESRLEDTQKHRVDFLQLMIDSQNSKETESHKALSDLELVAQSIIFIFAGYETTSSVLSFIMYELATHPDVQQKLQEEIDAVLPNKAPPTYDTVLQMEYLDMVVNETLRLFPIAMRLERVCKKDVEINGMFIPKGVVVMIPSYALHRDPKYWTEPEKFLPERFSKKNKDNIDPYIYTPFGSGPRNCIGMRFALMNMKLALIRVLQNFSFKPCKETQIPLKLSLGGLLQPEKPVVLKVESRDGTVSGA
# Sequence of Cytochrome P450 2D6 (P10635 whole entry): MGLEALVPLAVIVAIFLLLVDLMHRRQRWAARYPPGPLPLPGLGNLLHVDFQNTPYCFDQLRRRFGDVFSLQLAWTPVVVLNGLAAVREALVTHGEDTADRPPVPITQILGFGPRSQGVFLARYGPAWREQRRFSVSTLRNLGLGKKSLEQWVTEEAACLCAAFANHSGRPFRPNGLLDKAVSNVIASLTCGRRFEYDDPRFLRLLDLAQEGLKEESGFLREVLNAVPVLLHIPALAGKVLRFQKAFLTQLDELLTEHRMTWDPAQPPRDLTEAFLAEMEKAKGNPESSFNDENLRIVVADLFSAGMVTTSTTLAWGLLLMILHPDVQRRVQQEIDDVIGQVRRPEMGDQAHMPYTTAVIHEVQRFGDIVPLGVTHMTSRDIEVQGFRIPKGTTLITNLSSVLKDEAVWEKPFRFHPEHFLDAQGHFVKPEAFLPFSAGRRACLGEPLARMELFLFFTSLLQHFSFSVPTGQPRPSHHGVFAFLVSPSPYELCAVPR
# Sequence of Cytochrome P450 2C9 (P11712 whole entry): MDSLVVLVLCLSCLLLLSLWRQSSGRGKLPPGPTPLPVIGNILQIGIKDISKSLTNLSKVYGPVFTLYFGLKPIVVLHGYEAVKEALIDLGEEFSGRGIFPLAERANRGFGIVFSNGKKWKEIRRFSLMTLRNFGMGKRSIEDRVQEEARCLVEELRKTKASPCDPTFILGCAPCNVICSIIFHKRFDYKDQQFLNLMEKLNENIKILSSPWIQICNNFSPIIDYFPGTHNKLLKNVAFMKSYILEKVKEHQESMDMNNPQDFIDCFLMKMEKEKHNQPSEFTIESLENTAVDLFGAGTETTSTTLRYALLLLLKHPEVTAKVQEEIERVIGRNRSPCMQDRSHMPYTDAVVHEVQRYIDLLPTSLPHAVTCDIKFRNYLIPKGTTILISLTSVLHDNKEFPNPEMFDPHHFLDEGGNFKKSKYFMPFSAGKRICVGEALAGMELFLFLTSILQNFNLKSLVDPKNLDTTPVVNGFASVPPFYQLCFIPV
# Sequence of Cytochrome P450 2C19 (P33261 whole entry): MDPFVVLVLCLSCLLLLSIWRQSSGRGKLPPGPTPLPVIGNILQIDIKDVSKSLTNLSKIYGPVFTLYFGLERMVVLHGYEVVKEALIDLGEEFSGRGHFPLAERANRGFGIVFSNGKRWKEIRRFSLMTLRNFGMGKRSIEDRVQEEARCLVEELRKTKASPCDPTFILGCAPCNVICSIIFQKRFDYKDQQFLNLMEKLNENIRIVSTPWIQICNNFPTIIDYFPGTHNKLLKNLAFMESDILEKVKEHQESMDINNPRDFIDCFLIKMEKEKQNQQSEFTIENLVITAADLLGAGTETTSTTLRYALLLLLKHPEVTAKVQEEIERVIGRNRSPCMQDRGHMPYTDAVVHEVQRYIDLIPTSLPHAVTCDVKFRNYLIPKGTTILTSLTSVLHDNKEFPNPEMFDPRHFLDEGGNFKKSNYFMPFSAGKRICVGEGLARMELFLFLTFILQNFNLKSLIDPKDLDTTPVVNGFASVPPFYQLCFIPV
structure (smiles),measurement,setting,value
O=S(=O)(NCc1cc(-c2ccccc2)no1)c1ccc(Cl)cc1,AC50,Cytochrome P450 2D6,20 µM (inconclusive)
same,AC50,Cytochrome P450 3A4,25.1 µM (inconclusive)
CCc1cccc(NC(=O)c2cccc(S(=O)(=O)N3CCN(C)CC3)c2)c1,EC50,[1],> 260 µM (inactive)
Cc1ccc(NC(=O)Cn2c(CCC(=O)O)ccc2-c2cccs2)cc1,EC50,[1],> 260 µM (inactive)
O=C(CN1CCCCCC1)Nc1ccccc1Oc1ccccc1,AC50,[2],0.493 µM (active)
CC(=O)OC(C)C(=O)NS(=O)(=O)c1ccc(C)cc1 (centres undefined),EC50,[1],> 260 µM (inactive)
CCOC(=O)c1c(-c2ccccc2)nc2c(C)cccn12,AC50,Cytochrome P450 2D6,0.00562 µM (inconclusive)
same,AC50,Cytochrome P450 3A4,14.1 µM (inconclusive)
CCN(CC)C(S)=Nc1ccc(Cl)c(Cl)c1,EC50,[1],> 260 µM (inactive)
C[N+]1(C)CCC[C@@H](OC(=O)C(O)(c2ccccc2)c2ccccc2)C1,AC50,Cytochrome P450 2C19,inconclusive
same,AC50,Cytochrome P450 2D6,10 µM (inconclusive)
O=c1c2cc(Br)ccc2[nH]c(=S)n1Cc1cccnc1,AC50,Cytochrome P450 2D6,8.91 µM (inconclusive)
same,AC50,Cytochrome P450 2C9,12.6 µM (inconclusive)
COc1ccc(-c2noc3c2-c2nc(-c4ccccc4C)sc2CC3)cc1,AC50,[2],0.689 µM (active)
COc1ccc2c(c[n+](C)c3c4cc5c(cc4ccc23)OCO5)c1OC [CHELERYTHRINE],AC50,Cytochrome P450 2D6,25.1 µM (inconclusive)
same,AC50,Cytochrome P450 3A4,31.6 µM (inconclusive)
same,AC50,Cytochrome P450 2C9,39.8 µM (inconclusive)
CC(C)CN1CCCC2(CCN(C(=O)c3cccc(F)c3)CC2)C1,AC50,Cytochrome P450 2D6,12.6 µM (inconclusive)
same,AC50,Cytochrome P450 3A4,25.1 µM (inconclusive)
O=C(c1cnccn1)N1CCC2(CCCN(c3ccccn3)C2)CC1,AC50,Cytochrome P450 2D6,20 µM (inconclusive)
same,AC50,Cytochrome P450 3A4,7.94 µM (inconclusive)
Nc1cc(-c2ccco2)no1,EC50,[1],60.4 µM (active)
C(=C\c1nc(N2CCCCCC2)c2ccccc2n1)/c1ccccc1,AC50,[2],3.73 µM (active)
same,AC50,INS1,6.21 µM (active)
COCCCN1C(=O)c2[nH]nc(-c3ccccc3O)c2C1c1cccc(Cl)c1 (centres undefined),EC50,[1],59.7 µM (active)
CC(=O)Oc1ccc(-c2ccc(C(=O)Nc3cccc(S(=O)(=O)N4CCOCC4)c3)cc2)cc1,AC50,[2],1.52 µM (active)
O=C(CCc1nnc(Cc2ccc(-c3ccccc3)cc2)o1)N1CCCC1,EC50,[1],> 260 µM (inactive)
O=[N+]([O-])c1cccc(-c2nnc(CNC3CC3)o2)c1,EC50,[1],> 260 µM (inactive)
COc1ccc(C(=O)c2coc3ccc(O)c(CN(C)C)c23)cc1,EC50,[1],> 260 µM (inactive)
O=C(c1ccc2nccnc2c1)N1CCCC(Nc2ccc(F)c(F)c2)C1 (centres undefined),EC50,[1],> 260 µM (inactive)
COc1cc(/C=N/NC(=S)NC2CC3C=CC2C3)cc(OC)c1OC (centres undefined),EC50,[1],> 260 µM (inactive)
CCCc1nc(NC2CCCCC2)c(C#N)c2c1COC(C)(C)C2,AC50,[2],6.71 µM (active)
Cn1c(CO)cnc1SCC(=O)c1ccc(Cl)cc1,EC50,[1],> 260 µM (inactive)
COc1ccc(NC(=O)c2nn(C)c(=O)c3ccccc23)cc1S(=O)(=O)Nc1ccccc1Cl,EC50,[1],18.4 µM (active)
